Counter-ions that a name gives are not always drawn.
What follows are molecules tested on rhIFNγ stimulated STAT-3 phosphorylation in the A549 human epithelial cell line (assay: A549 Cell Assay: Inhibition of pSTAT3). Details: Homo sapiens; A549 cells.
Assay type: cell-based
Description: A549 Cell Assay: Inhibition of pSTAT3
An assay measuring the efficacy of JAK inhibitors on the functional response of recombinant human interferon γ (rhIFNγ) stimulated STAT-3 phosphorylation in the A549 human epithelial cell line.
A549 cells (ATCC #CCL-185), were plated at 30,000 cells/well in 96 well flat bottomed tissue culture plates (BD#353072) in 200 μL of growth medium (DMEM, Pfizer media prep, with 10% Fetal Bovine Serum, Sigma #F4135, 2 mM L-Glutamine, Pfizer media prep, 100 U/mL penicillin, Pfizer media prep, and 200 μg/ml streptomycin, Pfizer media prep), and cultured at 37° C., 5% CO2 incubator for 18 hours. Growth medium was removed by vacuum aspiration (V&P Scientific #vp187 bp-60), and 90 μL of pre-warmed assay medium (DMEM with 0.2% BSA, Miltenyi #130-091-376) was added to each well and incubated for 15 minutes at 37° C. 10 μL of vehicle control or test compound (final concentration range of 0.3 nM to 10 μM with 0.1% DMSO) was added to the cells. Plates were incubated at 37° C. for 1 hour. After compound incubation, 10 μL of 220 ng/mL recombinant human IFNγ (R&D Systems #285-IF, final rhIFNγ concentration of 20 ng/mL) was added to the cells and plates were incubated for 30 minutes at 37° C. Wells containing A549 cells, medium with 0.1% DMSO and no rhIFNγ were used as background controls. After rhIFNγ stimulation, media was aspirated from each well and 35 μL/well of iced-cold MSD lysis buffer containing protease and phosphatase inhibitors from Phospho-STAT3 Tyr705 assay kit (Meso-Scale Discovery #K150DID) was added to each well. Plates were incubated at 4° C. with shaking for 30 minutes. Cell lysates were assayed following the MSD Phospho-STAT3 Tyr705 assay kit protocol to detect pSTAT3.
Data were collected and transformed into percent inhibition and calculated using the following formula: […]

IC50 [nM] | SMILES
899 | CCN(c1ccc(O)cc1CNc1nc(-c2cc(F)c(O)cc2CC(F)(F)F)nc2[nH]nc(C(N)=O)c12)S(=O)(=O)c1ccccc1 [Example 107, 4-((2-(N-ethylphenylsulfonamido)-5-hydroxybenzyl)amino)-6-(5-fluoro-4-hydroxy-2-(2,2,2-trifluoroethyl)phenyl)-1H-pyrazolo[3,4-d]pyrimidine-3-carboxamide]
164 | CCc1cc(O)c(F)cc1-c1cc2[nH]nc(C(N)=O)c2c(NCc2ccc(O)cc2N(C)S(C)(=O)=O)n1 [Example 30, 6-(2-Ethyl-5-fluoro-4-hydroxyphenyl)-4-({4-hydroxy-2-[methyl(methylsulfonyl)amino]benzyl}amino)-1H-pyrazolo[4,3-c]pyridine-3-carboxamide]
92.4 | CNC(=O)c1n[nH]c2cc(-c3cc(F)c(O)cc3CC(F)(F)F)nc(NCc3cc(Cl)ccc3N(C)S(C)(=O)=O)c12 [Example 15, 4-({5-chloro-2-[methyl(methylsulfonyl)amino]benzyl}amino)-6-[5-fluoro-4-hydroxy-2-(2,2,2-trifluoroethyl)phenyl]-N-methyl-1H-pyrazolo[4,3-c]pyridine-3-carboxamide]
14.6 | CCN(c1ncccc1CNc1nc(-c2cc(F)c(O)cc2CC(F)(F)F)cc2[nH]nc(C(=O)NC)c12)S(C)(=O)=O [Example 63, 4-[({2-[ethyl(methylsulfonyl)amino]pyridin-3-yl}methyl)amino]-6-[5-fluoro-4-hydroxy-2-(2,2,2-trifluoroethyl)phenyl]-N-methyl-1H-pyrazolo[4,3-c]pyridine-3-carboxamide]
74.3 | CCN(c1ncccc1CNc1nc(-c2cc(F)c(O)cc2CC(F)(F)F)cc2[nH]nc(C(N)=O)c12)S(C)(=O)=O [Example 52, 4-[({2-[ethyl(methylsulfonyl)amino]pyridin-3-yl}methyl)amino]-6-[5-fluoro-4-hydroxy-2-(2,2,2-trifluoroethyl)phenyl]-1H-pyrazolo[4,3-c]pyridine-3-carboxamide]
20.9 | CCN(c1ccccc1CNc1nc(-c2cc(F)c(O)cc2CC(F)(F)F)cc2[nH]nc(C(N)=O)c12)S(=O)(=O)CC [Example 82, 4-((2-(N-ethylethylsulfonamido)benzyl)amino)-6-(5-fluoro-4-hydroxy-2-(2,2,2-trifluoroethyl)phenyl)-1H-pyrazolo[4,3-c]pyridine-3-carboxamide]
197 | CCN(c1nccnc1CNc1nc(-c2cc(F)c(O)cc2CC(F)(F)F)cc2[nH]nc(C(N)=O)c12)S(C)(=O)=O [Example 80, 4-[({3-[ethyl(methylsulfonyl)amino]pyrazin-2-yl}methyl)amino]-6-[5-fluoro-4-hydroxy-2-(2,2,2-trifluoroethyl)phenyl]-1H-pyrazolo[4,3-c]pyridine-3-carboxamide]
30.4 | CCN(c1ccccc1CNc1nc(-c2cc(F)c(O)cc2CC(F)(F)F)cc2[nH]nc(C(N)=O)c12)S(C)(=O)=O [Example 90, 4-({2-[ethyl(methylsulfonyl)amino]benzyl}amino)-6-[5-fluoro-4-hydroxy-2-(2,2,2-trifluoroethyl)phenyl]-1H-pyrazolo[4,3-c]pyridine-3-carboxamide]
221 | CN(c1ccccc1CNc1nc(-c2cc(F)c(O)cc2CC(F)(F)F)cc2[nH]nc(C(N)=O)c12)S(=O)(=O)CCCN1CCOCC1 [Example 66, 6-[5-fluoro-4-hydroxy-2-(2,2,2-trifluoroethyl)phenyl]-4-{[2-(methyl{[3-(morpholin-4-yl)propyl]sulfonyl}amino)benzyl]amino}-1H-pyrazolo[4,3-c]pyridine-3-carboxamide]
182 | CNC(=O)c1n[nH]c2cc(-c3cc(F)c(O)cc3CC(F)(F)F)nc(NCc3nccnc3N(C)S(C)(=O)=O)c12 [Example 51, 6-[5-fluoro-4-hydroxy-2-(2,2,2-trifluoroethyl)phenyl]-N-methyl-4-[({3-[methyl(methylsulfonyl)amino]pyrazin-2-yl}methyl)amino]-1H-pyrazolo[4,3-c]pyridine-3-carboxamide]
46.5 | CCN(c1nccnc1CNc1nc(-c2cc(F)c(O)cc2CC(F)(F)F)cc2[nH]nc(C(=O)NC)c12)S(C)(=O)=O [Example 45, 4-[({3-[ethyl(methylsulfonyl)amino]pyrazin-2-yl}methyl)amino]-6-[5-fluoro-4-hydroxy-2-(2,2,2-trifluoroethyl)phenyl]-N-methyl-1H-pyrazolo[4,3-c]pyridine-3-carboxamide]
72.4 | CNC(=O)c1n[nH]c2cc(-c3cc(F)c(O)cc3CC(F)(F)F)nc(NCc3cc(C)ccc3N(C)S(C)(=O)=O)c12 [Example 11, 6-[5-fluoro-4-hydroxy-2-(2,2,2-trifluoroethyl)phenyl]-N-methyl-4-({5-methyl-2-[methyl(methylsulfonyl)amino]benzyl}amino)-1H-pyrazolo[4,3-c]pyridine-3-carboxamide]

More lines, now with the values behind:

SMILES | IC50 [nM]
CC(CO)CNc1nc(-c2cc(F)c(O)cc2CC(F)(F)F)nc2[nH]nc(-c3nc4c([nH]3)CCN(Cc3ccccc3)C4)c12 (stereo not shown) [Example 173, 4-(3-(5-Benzyl-4,5,6,7-tetrahydro-1H-imidazo[4,5-c]pyridin-2-yl)-4-((3-hydroxy-2-methylpropyl)amino)-1H-pyrazolo[3,4-d]pyrimidin-6-yl)-2-fluoro-5-(2,2,2-trifluoroethyl)phenol] | 220
CCc1cc(O)c(F)cc1-c1cc2[nH]nc(-n3cccn3)c2c(NCc2ccccc2N(C)S(C)(=O)=O)n1 [Example 162, N-[2-({[6-(2-Ethyl-5-fluoro-4-hydroxyphenyl)-3-(1H-pyrazol-1-yl)-1H-pyrazolo[4,3-c]pyridin-4-yl]amino}methyl)phenyl]-N-methylmethanesulfonamide] | 20
CN(c1ccccc1CNc1nc(-c2cc(F)c(O)cc2CC(F)(F)F)nc2[nH]nc(-c3nnc(C4CCN(C(=O)CN5CCCC5)CC4)[nH]3)c12)S(C)(=O)=O [Example 168, N-(2-{[(6-[5-Fluoro-4-hydroxy-2-(2,2,2-trifluoroethyl)phenyl]-3-{5-[1-(pyrrolidin-1-ylacetyl)piperidin-4-yl]-4H-1,2,4-triazol-3-yl}-1H-pyrazolo[3,4-d]pyrimidin-4-yl)amino]methyl}phenyl)-N-methylmethanesulfonamide] | 1330
CN(c1ccccc1CNc1nc(-c2cc(F)c(O)cc2CC(F)(F)F)nc2[nH]nc(C(N)=O)c12)S(=O)(=O)c1ccccc1 [Example 96, 6-(5-Fluoro-4-hydroxy-2-(2,2,2-trifluoroethyl)phenyl)-4-((2-(N-methylphenylsulfonamido)benzyl)amino)-1H-pyrazolo[3,4-d]pyrimidine-3-carboxamide] | 2870
CCc1cc(O)c(F)cc1-c1cc2[nH]ncc2c(NCc2ccccc2N(CC)S(=O)(=O)CC)n1 [Example 136, N-ethyl-N-[2-({[6-(2-ethyl-5-fluoro-4-hydroxyphenyl)-1H-pyrazolo[4,3-c]pyridin-4-yl]amino}-methyl)phenyl]ethanesulfonamide hydrochloride] | 13.3
CCc1cc(O)c(F)cc1-c1cc2[nH]nc(C(=O)NC)c2c(NCc2ccccc2N(C)S(=O)(=O)CC)n1 [Example 3, 6-(2-ethyl-5-fluoro-4-hydroxyphenyl)-4-({2-[(ethylsulfonyl)(methyl)amino]benzyl}amino)-N-methyl-1H-pyrazolo[4,3-c]pyridine-3-carboxamide] | 16.2
CNC(=O)c1n[nH]c2cc(-c3cc(F)c(O)cc3C3CC3)nc(NCc3cccnc3N(C)S(C)(=O)=O)c12 [Example 49, 6-(2-cyclopropyl-5-fluoro-4-hydroxyphenyl)-N-methyl-4-[({2-[methyl(methylsulfonyl)amino]pyridin-3-yl}methyl)amino]-1H-pyrazolo[4,3-c]pyridine-3-carboxamide] | 385
CCc1cc(O)c(F)cc1-c1cc2[nH]nc(C(=O)NC)c2c(NCc2ccccc2N(CC)S(=O)(=O)CC)n1 [Example 2, 4-({2-[ethyl(ethylsulfonyl)amino]benzyl}amino)-6-(2-ethyl-5-fluoro-4-hydroxyphenyl)-N-methyl-1H-pyrazolo[4,3-c]pyridine-3-carboxamide] | 46.8
CCc1cc(O)c(F)cc1-c1cc2[nH]nc(C(=O)NC)c2c(NCc2ccc(O)cc2N(C)S(C)(=O)=O)n1 [Example 29, 6-(2-Ethyl-5-fluoro-4-hydroxyphenyl)-4-({4-hydroxy-2-[methyl (methylsulfonyl)amino]benzyl}amino)-N-methyl-1H-pyrazolo[4,3-c]pyridine-3-carboxamide] | 86.9
CCc1cc(O)c(F)cc1-c1cc2[nH]nc(C(=O)NC)c2c(NCc2ccccc2N(C)S(N)(=O)=O)n1 [Example 73, 6-(2-ethyl-5-fluoro-4-hydroxyphenyl)-N-methyl-4-({2-[methyl(sulfamoyl)amino]benzyl}amino)-1H-pyrazolo[4,3-c]pyridine-3-carboxamide] | 35.6

From patent US10022376B2 (Pfizer Inc., priority 2014, dated 2018)
